# Experiments:
# [1] = system: Arctic grayling; assay: Exploratory bioassay, Arctic grayling; format: in vivo, Thymallus arcticus; details: 10 μg/l; 48 h
# Procedure: (§1) Cursory bioassays were made with small numbers of other fishes and a crayfish (Pacifasticus klamathensis) to check on the universal selectivity of the toxicants. The fishes included Arctic grayling (Thymallus arcticus), longnose sucker (C. catastomus), largescale sucker, (C. macrocheilus), and spotted sucker (Minytrema melanops).
# Three longnose suckers (about 125 mm) and three Arctic grayling (about 125 mm) were exposed to 10 μg/l of 2, 2, 2, 1-tetrachloroethyl diethyl phosphate. The suckers died between 14 and 22 hours at 13 C. The grayling were not affected in 48-hour biassays.
# [2] = system: stickleback; assay: Deactivation with activated carbon, survival of stickleback; format: in vivo; details: 2 mg/l; for Mean survival time, bioassay started 18 hours after chemical was added / Mean survival time, bioassay started when chemical was added: river water, 15 C
# Procedure: A second lot of 5 fish was added to each aquarium 18 hours after the first lot of 10 fish had died or lost their equilibrium. As the life of the first lot of fish was short, the test water was only slightly conditioned by the dying fish and any error introduced by this procedure was relatively small.
# [3] = system: chinook salmon; assay: Deactivation with potassium permanganate, mortality of chinook salmon; format: in vivo, O. tschawytscha
# [4] = system: spotted sucker; assay: Exploratory bioassay, spotted sucker; format: in vivo, Minytrema melanops; details: less than 24 h; 15 C; 31 to 38 mm
# Procedure: as §1
# A series of five 24-hour biassays was made with the spotted sucker (2 fish per aquarium) at a concentration range of 1 mg/l to 5 mg/l of 2, 2-dichlorovinyl diethyl phosphate. The chemical killed all of the spotted suckers (31 to 38 mm) at 1 mg/l in less than 24 hours at 15 C.
# [5] = system: carp; assay: Bioassay, carp; format: in vivo, Cyprinus carpio; details: for selectivity to carp: in vivo
# Procedure: In a later bioassay a concentration of 1 mg/l of 2, 2-dichlorovinyl diethyl phosphate killed a 20 g carp (68 mm) in 10 l of artesian well water (load, 2.0 g/l) at 10 C. in 30 hours.
# A subsequent series of bioassays tested concentrations of 0.0, 0.6, 0.8, 1.0, 1.5 and 2.0 mg/l of 2, 2-dichlorovinyl diethyl phosphate with larger carp (fork length range, 115-150 mm; mean weight, 44 g) using 10 fish per concentration (load, 0.7 g/l) and artesian well water at 10 C. A concentration of 2.0 mg/l of the chemical killed 100 percent of the carp in 24 hours and a concentration of 1.5 mg/l killed 90 percent of them in […] and 100 percent in 72 hours. No fish died in the control or at a concentration of 0.6 mg/l in 192-hour bioassays. In contrast the LC0 of salmonids exposed to 2, 2-dichlorovinyl diethyl phosphate varies between 4 and 8 mg/l in 48-hour bioassays and 2 and 6 mg/l in 96-hour bioassays at 10 C. (Table 2).
# [6] = system: brown bullhead catfish; assay: Bioassay, brown bullhead catfish; format: in vivo, Ictalurus nebulosus; details: for mortality: 96 h, 140-185 mm; for mortality / time in which all bullhead catfish died: artesian well water, 10 C; for time in which all bullhead catfish died: fry 28-40 mm; for selectivity to bullhead catfish: in vivo
# Procedure: Bioassays (10 fish per concentration) were made with brown bullhead catfish fry (28-40 mm) at concentrations of 0, 2, and 4 mg/l of 2, 2-dichlorovinyldiethyl phosphate in artesian well water (load, 0.5 g/l). All the Bullhead catfish died in 12 hours at 2 mg/l and in 6 hours at 4 mg/l of the chemical at 10 C.
# A second series of bioassays (10 fish per concentration) was made with larger bullhead catfish (140-185 mm) at 0.6 and 1.0 mg/l concentrations of 2, 2-dichlorovinyl diethyl phosphate in artesian well water (load, 1.0 g/l) at 10 C. In 96 hours 50% mortality occurred at 0.6 mg/l and 100% mortality at 1.0 mg/l.
# [7] = system: chinook salmon; details: chinook salmon, in vivo, 96 h
smiles,measurement,setting,value
"CCOP(=O)(OCC)OC(Cl)C(Cl)(Cl)Cl (centres unmarked) [2,2,2,1-tetrachloroethyl diethyl phosphate]",effect on grayling,[1],not affected
"CCOP(=O)(OC=C(Cl)Cl)OCC [2,2-dichlorovinyl diethyl phosphate]",effect of activated carbon on mortality,[2],delayed mortality
same,survival time after 18-hour deactivation period,[2]; 8 and 32 mg/l of carbon,about tripled
same,"Mean survival time, bioassay started 18 hours after chemical was added",[2]; activated carbon 0 mg/l,9.5 h
same,"Mean survival time, bioassay started when chemical was added",[2]; activated carbon 0 mg/l,7.5 h
same,"Mean survival time, bioassay started 18 hours after chemical was added",[2]; activated carbon 4 mg/l,8.0 h
same,"Mean survival time, bioassay started when chemical was added",[2]; activated carbon 4 mg/l,9.2 h
same,"Mean survival time, bioassay started 18 hours after chemical was added",[2]; activated carbon 8 mg/l,33.5 h
same,"Mean survival time, bioassay started when chemical was added",[2]; activated carbon 8 mg/l,10.8 h
same,"Mean survival time, bioassay started when chemical was added",[2]; activated carbon 16 mg/l,12.0 h
same,"Mean survival time, bioassay started when chemical was added",[2]; activated carbon 32 mg/l,22.0 h
same,"Mean survival time, bioassay started 18 hours after chemical was added","[2]; activated carbon 32 mg/l, 1 fish did not die (observed 11 days)",95.0 h
same,deactivation by 1 equivalent weight of permanganate,[3]; 15 C,about 25%
same,effect of potassium permanganate on mortality,[3]; excessive concentrations of 2 Cl,delayed mortality
same,concentration that killed all of the spotted suckers,[4],1 mg/L
same,carp mortality,"[5]; 0.6 mg/l, 192 h, artesian well water, 10 C",No fish died
same,time in which carp was killed,"[5]; 1 mg/l, 20 g carp, artesian well water, 10 C",30 h
same,carp killed,"[5]; 1.5 mg/l, 72 h, artesian well water, 10 C",100%
same,carp killed,"[5]; 1.5 mg/l, 96 h, artesian well water, 10 C",90%
same,carp killed,"[5]; 2.0 mg/l, 24 h, artesian well water, 10 C",100%
same,selectivity to carp,[5],specific for the carp and bullhead catfish
same,selectivity to carp,"[5]; listed as 2, 2-dichlorovinyl diethyl phosphate",the carp died first
same,mortality,[6]; 0.6 mg/l,50%
same,mortality,[6]; 1.0 mg/l,100%
same,time in which all bullhead catfish died,[6]; 2 mg/l,12 h
same,time in which all bullhead catfish died,[6]; 4 mg/l,6 h
same,selectivity to bullhead catfish,[6],specific for the carp and bullhead catfish
same,selectivity to bullhead catfish,[6]; listed as dichloro-compound,slightly more selective to bullhead than to stickleback
same,LC50,[7],3.4 mg/L
